Measurements as given in patent US5126341A, “Anti-inflammatory 1,8-naphthyridin-2-one derivatives” (Kyowa Hakko Kogyo Co., Ltd., priority 1990, dated 1992).
Read-outs that look alike come from different tables or passages of the source.

What was measured:
[1] = system: carrageenin-induced paw edema; assay: Effect on carrageenin-induced paw edema; type: in vivo, male Wistar rats; details: po; rat, 100 mg/kg p.o., 1 hour before 1% carrageenin; paw volume 3 hours after injection; read-out: Suppression rate for paw swelling, (a) carrageenin-induced edema
Description: a) Effect on carrageenin-induced paw edema
Male Wistar rats weighing 150 to 160 g (n=3-5) were used in the experiment. After the right hind paw volume was measured with the plethysmograph (TK-101; Unicom Co., Ltd.), the test compound (100 mg/kg) was orally administered. After one hour, 0.1 ml of 1 % carrageenin (λ-carrageenin; PICNIN-A®, Zushi Kagaku Co., Ltd.) was subcutaneously injected into the right hind paw footpad. Three hours after the injection of carrageenin, the right hind paw volume was measured and the swelling rate was determined by the following equation 1. [formula]
Vt: the right hind paw volume measured 3 hours after the injection of carrageenin
Vo: the right hind paw volume measured prior to the injection of carrageenin
The suppression rate was calculated by the following equation 2. [formula]
Swt: the swelling rate of the group administered with the test compound
Swc: the swelling rate of the control group administered with no test compound

[2] = system: zymosan-induced paw edema; assay: Effect on zymosan-induced paw edema; type: in vivo, male Wistar rats; details: rat, 100 mg/kg p.o., 1 hour before 1% zymosan; paw volume 4 hours after injection
Description: b) Effect on zymosan-induced paw edema
(§1) The experiment was carried out in the same manner as in the carrageenin-induced paw edema test except that 1% zymosan (Zymosan A®; Sigma Chemical Co.) was used in place of 1% carrageenin and the right hind paw volume was measured 4 hours after the injection of the edema-inducing substance instead of 3 hours. The swelling rate and the suppression rate were calculated by equation 1 and equation 2, respectively.

[3] = system: arachidonic acid-induced paw edema; assay: Arachidonic acid-induced paw edema; type: in vivo, male Wistar rats; details: rat, 100 mg/kg p.o., 1 hour before 0.5% arachidonic acid; paw volume one hour after injection
Description: c) Arachidonic acid-induced paw edema
as §1, with “0.5% arachidonic acid” for “1% zymosan (Zymosan A®; Sigma Chemical Co.)”, “one hour” for “4 hours”

[4] = system: Type III allergic reaction-induced pleurisy; assay: Effect on Type III allergic reaction-induced pleurisy; type: in vivo, male Wistar rats; details: po, 4.5 h, rat, 100 mg/kg p.o., four and a half hours after induction of pleurisy
Description: d) Effect on Type III allergic reaction-induced pleurisy
IgG was purified from rabbit anti-OA serum prepared in advance by the method of Koda et al. [Folia Pharmacol., Japon 66, 237, (1970)] in the following manner.
A saturated solution of ammonium sulfate (half volume of the serum) was added to the anti-OA serum, and the mixture was left for one hour at 4° C. The precipitate was taken by centrifugation (3,000 rpm, 30 min, 4° C.) and dissolved in phosphate buffered saline of Dulbecco. Then, ammonium sulfate fractionation was carried out three times in the same manner as above, whereby a purified IgG fraction was obtained.
Male Wistar rats weighing 225-250 g were pre-bred for several days and fasted overnight prior to the experiment The test compound (100 mg/kg) was orally administered to the animals, and after 30 minutes, IgG of rabbit anti-OA (0.2 ml, 5 mg protein/ml) was injected into the pleural cavity of the animals under anesthesia with ether. Thirty minutes after the injection of IgG, OA (albumin egg grade III; Sigma Chemical Co.) was intravenously injected into the animals as an inducer of pleurisy. After two hours, Evans Blue (25 mg/kg) was intravenously injected, and four and a half hours after the induction of pleurisy, the animals were killed by bleeding.
Then, an exudate in the pleural cavity was obtained, and the volume of the exudate was measured. The pleural cavity was rinsed with 5 ml of physiological saline and the rinsings were added to the exudate. The number of infiltrated cells in the mixture was counted and the volume of the dye in the mixture was determined by the absorption at 625 nm [Agent Actions., 25, 326 (1988)]. The suppression rates for the volume of the exudate, the number of infiltrated cells and the volume of the dye in the pleural cavity were calculated by the following equation 3. [formula]
S.V: the value obtained with the group administered with the test compound and in which pleurisy is induced
N.V: the value obtained with the group in which pleurisy is not induced
P.V: the value obtained with the group administered with no test compound and in which pleurisy is induced

[5] = system: male dd-mice; details: mouse, in vivo, 10080 min; for Acute toxicity (MLD, Minimum Lethal Dose) i.p.: ip; for Acute toxicity (MLD, Minimum Lethal Dose) p.o.: po
Description: The test compounds were orally or intraperitoneally administered to male dd-mice weighing 20 to 25 g. MLD (Minimum Lethal Dose) was determined by observing the mortality for seven days after the administration.

[6] = Evans Blue 25 mg/kg i.v., absorption at 625 nm, read-out: Suppression rate, volume of dye in the exudate
[7] = read-out: Suppression rate, number of infiltrated cells in the exudate
[8] = read-out: Suppression rate, volume of exudate

Compound	inhibition in vivo at 100 mg/kg [1] [%]	Suppression rate for paw swelling, (b) zymosan-induced edema [2] [%]	Suppression rate for paw swelling, (c) arachidonic acid-induced edema [3] [%]	inhibition in vivo at 100 mg/kg [4, 6] [%]	inhibition in vivo at 100 mg/kg [4, 7] [%]	inhibition in vivo at 100 mg/kg [4, 8] [%]	Acute toxicity (MLD, Minimum Lethal Dose) i.p. [5] [mg/kg]	Acute toxicity (MLD, Minimum Lethal Dose) p.o. [5] [mg/kg]
O=C(Nc1cccnc1)c1c(O)c2cccnc2n(-c2ccccc2)c1=O [Compound 4, 4-Hydroxy-2-oxo-1-phenyl-N-(3-pyridyl)-1H-1,8-naphthyridine-3-carboxamide]	40	37.8	34.9	54.4	30.5	75.3	> 100	> 300
O=C(Nc1ccncc1)c1c(O)c2cccnc2n(-c2ccccc2)c1=O [Compound 5, 4-Hydroxy-2-oxo-1-phenyl-N-(4-pyridyl)-1H-1,8-naphthyridine-3-carboxamide]	38.5	38.4	48.0	66.5	58.6	100	> 100	300
